Measured values taken from patent publication USRE36385E, “Glucopyranose derivatives” (Ono Pharmaceutical Co., Ltd., priority 1985, dated 1999).

Key:
lympha cells = experiment: Mitogenic activity in vitro (Blastogenic index); assay type: cell-based, C3H/He male mice; details: Mus musculus, Lymphocyte; terminal concentration 1 μg/ml; ratio of 3H-tymidine uptake vs blank control; read-out: Blastgenic Index
Method: (1) Mitogenic activity in vitro
Mitogenic activity means activity of activating mitogenic cell division, and in this test system, the amount of tymidine taken into lympha cells was measured and a ratio determined against a blank control call (Blastogenic index) was calculated.
For example, adding the compound prepared in example 1(c) to the test system induced 30 times the amount of tymidine taken into the lympha cells versus the control.
The amounts were measured by density of a radiolabel.
Mytogenic activity in vitro was measured by the following method (See Procedure Method of Immunoexperiment pp 315 published by Japan Immunology Society).
C3H/He male mice 6 weeks old were killed by bloodletting, and their spleens were isolated and homogenized. Homogenizing liquids were filtered with gauze, and suspending cells were prepared with PBS solution. After washing, lymphacytes fractions were gathered with lympholight M. Lymphacytes were suspended in RPMI 1640 cultivation solution (10% FEBS), and the solution was divided into 5×10^5 cells/180 μl/wells. Ten times concentration of the terminal concentration (1 μg/ml) of the compounds of the present invention were added with 20 μl portions to each of the wells.
After cultivation, ^3 H-tymidine 0.5 μCi/20 μl was added to the each cells. Cultivation was continued at 37° C. for another 24 hrs, and amounts of ^3 H-tymidine taken into the cells were measured. Mitogenic activities were calculated as by Blastogenic index in as follows. [formula]

Mice L-M cells = experiment: Inducing activities of TNF in vitro (cytotoxicity of serum from treated mice); assay type: cell-based, mice (ICR male mice serum; mice L-M cells); details: Mus musculus, iv; 10 μg via tail vein, serum 90 mins after; L-M cells 48 hrs; read-out: Cytotoxicities
Method: (2) Inducing activities of TNF in vitro
Inducing activity of TNF in vitro was measured by the following test system.
Corye parvum (manufactured by Ribi Immuno Chem. Research Inc.) was administered in ICR male mice 6-weeks old through the tail vein as priming agent. Ten days later, the compounds of the present invention (10 μg) were administered through tail vein as eliciting agent. 90 mins after the administration, blood was collected from the hearts, and blood serums were separated.
Mice L-M cells (10^4 /100 μl/well) suspended in a mixture of the diluted serum solution (100 μl/well) and RPMI 1640 cultivating solution (10% FEBS and 0.2% glucose; manufactured by Nissui Pharmaceutical Co.) were cultivated in an atmosphere of a mixed gas of 5% CO2 -[…], for 48 hrs at 37° C., after adding ^3 H-tymidine taken (0.5 μCi/20 μl/well). Amounts of ^3 H-tymidine taken into cells during the cultivation were measured.
Inducing activities of TNF were measured by cytotoxicity calculated as follows: [formula]

RLδ1 tumor = experiment: Anti-tumor effect on Balb/C mice inoculated with RLδ1 tumor; assay type: in vivo, female Balb/C mice; details: for Survival period: Day 10, day ± standard error; for effect on tumor regression: 3 mg/body, Day 14 (4 day after administration); for Appearent tumor weight: g ± standard error
Method: (2) Anti-tumor effect on Balb/C mice inoculated with RLδ1 tumor.
Tumor cells which had been maintained in ascites of Balb/C mouse generation after generation was used. One group is consisting of six female balb/C mice. RLδ1 tumor (1×10^5 cells/0.05 ml) was inoculated into left side of female mice of 6-week old (body weight: 18~20 g). Ten days after, when tumore size came to 7~10 mm, compound of example No. 1(1) or 1(t) was administered by i.p. route (Day 10). Dose of test compound was 1 and 3 mg/body dand each test compound solution volume was 10 ml/kg. Antitumore effect is estimated by survival period and tumor appearent weight.
Test results about survival period and tumor apparent weight are shown in the following Tables II(3) and II(4), respectively.

Meth-A sarcoma = experiment: Anti-tumor effect on Balb/C mice inoculated with Meth-A Sarcoma; assay type: in vivo, female Balb/C mice; details: for Apperarent tumor weight: g ± standard error; for effect on prolongation of life / effect on tumore regression: at the dose of 3 mg/kg; for Survival period: iv tail vein Day 7, 9, 12, day ± standard error
Method: (1) Anti-tumor effect on Balb/C mice inocudlated with Meth-A Sarcoma
Anti-tumor effect was measured by the following procedure.
Tumor cells which had been maintained in ascites of Balb/C mouse generation after generation was used. One group is consisting of eight female Balb/C mice. Meth-A sarcoma tumor (1×10^5 cells/0.05 ml) was inoculated into left side of female mice of 7-week old (body weight: 18-20 g). Seven day after, when tumor size came to 6~9 mm, test compound was administered into tail vein first (day 7) and then administered two times (total three times: Day 7, 9, 12). Dose of test compound is 3 and 10 mg/kg or 3, 10 and 30 mg/kg and each test compound solution volume was 10 ml/kg. Anti-tumor effect is estimated by survival period (from inoculation day to death day) and tumor apparent weight. [formula] Test results about survival period and tumor appearent weight are shown in the following Tables II(1) and II(2), respectively.
In experiments, statistic analysis was done with unpaired Student's t(two tailed)-test. […] P values lower than 0.05 were judged to be significant.

[1] = dose 1 (mg/kg as printed) ip, Day 10 (first column)
[2] = dose 1 (mg/kg as printed) ip, second column printed Day 10
[3] = dose 3 (mg/kg as printed) ip, Day 10 (first column)
[4] = dose 3 (mg/kg as printed) ip, second column printed Day 10

## CCCCCCCCCCCC(CC(=O)N[C@H]1COC[C@@H](OS(=O)(=O)O)[C@@H]1OC(=O)CCCCCCCCc1ccccc1)OC(=O)CCCCCCCCc1ccccc1 (single isomer, unassigned) [3(c), 2-deoxy-2-[3-(9-phenylnonanoyl)oxytetradecanoyl]amino-3-O-(9-phenylnonanoyl)-4-O-sulfo-1,5-anhydro-D-xylitol]
Lympha cells
  fold induction at 1 µg/mL: 13.8

## CCCCCCCCCCCC(CC(=O)N[C@H]1COC[C@@H](OS(=O)(=O)O)[C@@H]1OC(=O)CCCCCCCCc1ccccc1)OC(=O)CCCCCCCCc1ccccc1 (single isomer, unassigned) [Example 3, 2-deoxy-2-[3-(9-phenylnonanoyl)oxytetradecanoyl]amino-3-O-(9-phenylnonanoyl)-4-O-sulfo-1,5-anhydro-D-xylitol]
Mice L-M cells
  cytotoxicity at 0.01 mg: 50.7%

## CCCCCCCCCCC[C@@H](CC(=O)N[C@H]1C(O)O[C@H](CO)[C@@H](OS(=O)(=O)O)[C@@H]1OC(=O)CCCCCCCCCCc1ccccc1)OC(=O)CCCCCCCCCCc1ccccc1 (stereo partly drawn) [1(f), 2-deoxy-2-[3S-(11-phenylundecanoyloxy)tetradecanoyl]amino-3-O-(11-phenylundecanoyl)-4-O-sulfo-D-glucopyranose]
Lympha cells
  fold induction at 1 µg/mL: 23

## CCCCCCCCCCC[C@@H](CC(=O)N[C@H]1C(O)O[C@H](CO)[C@@H](OS(=O)(=O)O)[C@@H]1OC(=O)CCCCCCCOc1ccccc1)OC(=O)CCCCCCCOc1ccccc1 (stereo partly drawn) [1(l), 2-deoxy-2-[3S-(8-phenoxyoctanoyloxy)tetradecanoyl]amino-3-O-(8-phenoxyoctanoyl)-4-O-sulfo-D-glucopyranose]
RLδ1 tumor; 1 mg/body ip
  Survival period: 47.3 ± 18.8 days
RLδ1 tumor; 3 mg/body ip
  Survival period: 55.3 ± 16.4 days
RLδ1 tumor
  effect on tumor regression: significant effect
RLδ1 tumor; [1]
  Appearent tumor weight: 0.216 ± 0.043 g
RLδ1 tumor; [2]
  Appearent tumor weight: 0.234 ± 0.168 g
RLδ1 tumor; dose 1 (mg/kg) ip, Day 13
  Appearent tumor weight: 0.351 ± 0.349 g
RLδ1 tumor; [3]
  Appearent tumor weight: 0.216 ± 0.029 g
RLδ1 tumor; [4]
  Appearent tumor weight: 0.210 ± 0.192 g
RLδ1 tumor; dose 3 (mg/kg) ip, Day 13
  Appearent tumor weight: 0.333 ± 0.375 g

## CCCCCCCCCCC[C@@H](CC(=O)N[C@H]1C(O)O[C@H](CO)[C@@H](OS(=O)(=O)O)[C@@H]1OC(=O)CCCCCCCCc1cccc2ccccc12)OC(=O)CCCCCCCCc1cccc2ccccc12 (stereo partly drawn) [1(o), 2-deoxy-2-[3S-[9-(1-naphthyl)nonanoyloxy]tetradecanoyl]amino-3-O-[9-(1-naphthyl)nonanoyl]-4-O-sulfo-D-glucopyranose]
Lympha cells
  fold induction at 1 µg/mL: 17

## CCCCCCCCCCC[C@H](CC(=O)N[C@H]1[C@H](OC)O[C@H](CO)[C@@H](OS(=O)(=O)O)[C@@H]1OC(=O)CCCCCCCCc1ccccc1)OC(=O)CCCCCCCCc1ccccc1 [1(t), 2-methyl-2-deoxy-2-[3R-(9-phenylnonanoyloxy)tetradecanoyl]amino-3-O-(9-phenylnonanoyl)-4-O-sulfo-β-D-glucopyranoside]
Lympha cells
  fold induction at 1 µg/mL: 50
RLδ1 tumor; 1 mg/body ip
  Survival period: 51.8 ± 20.1 days
RLδ1 tumor; 3 mg/body ip
  Survival period: 54.0 ± 18.4 days
RLδ1 tumor
  effect on tumor regression: significant effect
RLδ1 tumor; [1]
  Appearent tumor weight: 0.226 ± 0.082 g
RLδ1 tumor; [2]
  Appearent tumor weight: 0.241 ± 0.257 g
RLδ1 tumor; dose 1 (mg/kg) ip, Day 13
  Appearent tumor weight: 0.383 ± 0.583 g
RLδ1 tumor; [3]
  Appearent tumor weight: 0.213 ± 0.041 g
RLδ1 tumor; [4]
  Appearent tumor weight: 0.159 ± 0.092 g
RLδ1 tumor; dose 3 (mg/kg) ip, Day 13
  Appearent tumor weight: 0.147 ± 0.153 g

## O=C(CCCCCCCCc1cccc2ccccc12)N[C@H]1C(O)O[C@H](CO)[C@@H](OS(=O)(=O)O)[C@@H]1OC(=O)CCCCCCCCc1cccc2ccccc12 (stereo partly drawn) [1(u), 2-deoxy-2-[9-(1-naphthyl)nonanoyl]amino-3-O-[9-(1-naphthyl)nonanoyl]-4-O-sulfo-D-glucopyranose]
Lympha cells
  fold induction at 1 µg/mL: 10

## CCCCCCCCCCOc1ccc(C(=O)N[C@H]2[C@@H](OC)O[C@H](CO)[C@@H](OS(=O)(=O)O)[C@@H]2OC(=O)c2ccc(OCCCCCCCCCC)c(OCCCCCCCCCC)c2)cc1OCCCCCCCCCC [4(b), Methyl 2-deoxy-2-(3,4-didecyloxybenzoyl)amino-3-O-(3,4-didecyloxybenzoyl)-4-O-sulfo-α-D-glucopyranoside]
Meth-A sarcoma; 3 mg/kg iv, Day 7
  Apperarent tumor weight: 0.218 ± 0.028 g
Meth-A sarcoma; 3 mg/kg iv, Day 10
  Apperarent tumor weight: 0.172 ± 0.094 g
Meth-A sarcoma; 3 mg/kg iv, Day 13
  Apperarent tumor weight: 0.272 ± 0.181 g
Meth-A sarcoma; 3 mg/kg iv, Day 16
  Apperarent tumor weight: 0.430 ± 0.459 g
Meth-A sarcoma; 10 mg/kg iv, Day 7
  Apperarent tumor weight: 0.217 ± 0.022 g
Meth-A sarcoma; 10 mg/kg iv, Day 10
  Apperarent tumor weight: 0.154 ± 0.042 g
Meth-A sarcoma; 10 mg/kg iv, Day 13
  Apperarent tumor weight: 0.197 ± 0.068 g
Meth-A sarcoma; 10 mg/kg iv, Day 16
  Apperarent tumor weight: 0.172 ± 0.141 g
Meth-A sarcoma
  effect on prolongation of life: significant effect
  effect on tumore regression: significant effect
Meth-A sarcoma; dose 3 (mg/kg)
  Survival period: 61.6 ± 18.0 days
Meth-A sarcoma; dose 10 (mg/kg)
  Survival period: 65.8 ± 20.4 days

## CCCCCCCCCCCCCC(=O)N[C@H]1C(O)O[C@H](CO)[C@@H](OS(=O)(=O)O)[C@@H]1OC(=O)c1ccc(OCCCCCCCCCC)c(OCCCCCCCCCC)c1 (stereo partly drawn) [4(c)]
Meth-A sarcoma; 3 mg/kg iv, Day 7
  Apperarent tumor weight: 0.200 ± 0.044 g
Meth-A sarcoma; 3 mg/kg iv, Day 10
  Apperarent tumor weight: 0.230 ± 0.084 g
Meth-A sarcoma; 3 mg/kg iv, Day 13
  Apperarent tumor weight: 0.392 ± 0.176 g
Meth-A sarcoma; 3 mg/kg iv, Day 16
  Apperarent tumor weight: 0.578 ± 0.274 g
Meth-A sarcoma; 10 mg/kg iv, Day 7
  Apperarent tumor weight: 0.210 ± 0.025 g
Meth-A sarcoma; 10 mg/kg iv, Day 10
  Apperarent tumor weight: 0.206 ± 0.053 g
Meth-A sarcoma; 10 mg/kg iv, Day 13
  Apperarent tumor weight: 0.242 ± 0.086 g
Meth-A sarcoma; 10 mg/kg iv, Day 16
  Apperarent tumor weight: 0.300 ± 0.193 g
Meth-A sarcoma; 30 mg/kg iv, Day 7
  Apperarent tumor weight: 0.209 ± 0.023 g
Meth-A sarcoma; 30 mg/kg iv, Day 10
  Apperarent tumor weight: 0.168 ± 0.062 g
Meth-A sarcoma; 30 mg/kg iv, Day 13
  Apperarent tumor weight: 0.222 ± 0.152 g
Meth-A sarcoma; 30 mg/kg iv, Day 16
  Apperarent tumor weight: 0.309 ± 0.259 g
Meth-A sarcoma
  effect on prolongation of life: significant effect
  effect on tumore regression: significant effect
Meth-A sarcoma; dose 3 (mg/kg)
  Survival period: 51.9 ± 8.2 days
Meth-A sarcoma; dose 10 (mg/kg)
  Survival period: 58.3 ± 13.8 days
Meth-A sarcoma; dose 30 (mg/kg)
  Survival period: 71.3 ± 16.1 days

## CCCCCCCCCCC[C@@H](CC(=O)N[C@H]1CO[C@H](C)[C@@H](OS(=O)(=O)O)[C@@H]1OC(=O)CCCCCCCCc1ccccc1)OC(=O)CCCCCCCCc1ccccc1 [Example 2, 2,6-deoxy-2-[3S-(9-phenylnonanoyloxy)tetradecanoyl]amino-3-O-(9-phenynonanoyl)-4-O-sulfo-1,5-anhydro-D-glucitol]
Lympha cells
  fold induction at 1 µg/mL: 33
